pKi: −log10 of the molar value.
Experiments:
[1] = molecular target: 5-hydroxytryptamine receptor 1A/1B/1D/2C (Homo sapiens, UniProt P08908+P28221+P28222+P28335)
Substance-P receptor = Substance-P receptor (Homo sapiens, UniProt P25103)
Adenosine receptor A1 = Adenosine receptor A1 (Homo sapiens, UniProt P30542)
Adenosine receptor A2a = Adenosine receptor A2a (Homo sapiens, UniProt P29274)
[2] = molecular target: Sodium-dependent dopamine transporter (Homo sapiens, UniProt Q01959)
[3] = molecular target: Sodium-dependent noradrenaline transporter (Homo sapiens, UniProt P23975)
Histamine H1 receptor = Histamine H1 receptor (Homo sapiens, UniProt P35367)
[4] = molecular target: 5-hydroxytryptamine receptor 3A (Homo sapiens, UniProt P46098)
D(2) dopamine receptor = D(2) dopamine receptor (Homo sapiens, UniProt P14416)
D(1A) dopamine receptor = D(1A) dopamine receptor (Homo sapiens, UniProt P21728)
[5] = molecular target: 5-hydroxytryptamine receptor 2A (Sus scrofa, UniProt P50129)
Adenylate cyclase type 9 = Adenylate cyclase type 9 (Homo sapiens, UniProt O60503)
[6] = molecular target: Solute carrier family 22 member 1 (Rattus norvegicus, UniProt Q63089)
[7] = molecular target: Adrenergic alpha2 receptor (Mesocricetus auratus, UniProt Q60533)
[8] = molecular target: Type-2 angiotensin II receptor (Homo sapiens, UniProt P50052)
[9] = molecular target: Voltage-dependent N-type calcium channel subunit alpha-1B (Rattus norvegicus, UniProt Q02294)
[10] = molecular target: Voltage-dependent T-type calcium channel subunit alpha-1H (Homo sapiens, UniProt O95180)
[11] = molecular target: Chloride channel protein 1 (Homo sapiens, UniProt P35523)
[12] = molecular target: Muscarinic acetylcholine receptor M1 (Mus musculus, UniProt P12657)
[13] = molecular target: Gamma-aminobutyric acid type B receptor subunit 1 (Homo sapiens, UniProt Q9UBS5)
[14] = molecular target: Glutamate receptor ionotropic, kainate 2 (Homo sapiens, UniProt Q13002)
[15] = molecular target: Glutamate receptor ionotropic, NMDA 1 (Rattus norvegicus, UniProt P35439)
GLRA1 protein = GLRA1 protein (Homo sapiens, UniProt Q14C71)
[16] = molecular target: Inositol-tetrakisphosphate 1-kinase (Homo sapiens, UniProt Q13572)
Beta-nerve growth factor = Beta-nerve growth factor (Homo sapiens, UniProt P01138)
Apamin = Apamin (Apis mellifera, UniProt P01500)
Protein kinase C = Protein kinase C (Drosophila melanogaster, UniProt P13678)
[17] = molecular target: Outer capsid protein sigma-1 (Reovirus type 3 (strain Dearing), UniProt P03528)
VIP peptides = VIP peptides (Homo sapiens, UniProt P01282)
[18] = molecular target: Beta-2 adrenergic receptor (Mus musculus, UniProt P18762)
Glutamate receptor 3 = Glutamate receptor 3 (Homo sapiens, UniProt P42263)
Substance-K receptor = Substance-K receptor (Bos taurus, UniProt P05363)
[19] = molecular target: Gamma-aminobutyric acid receptor subunit alpha-1 (Homo sapiens, UniProt P14867)

Measured: pKi

Sequence of Adrenergic alpha2 receptor (Q60533 whole entry): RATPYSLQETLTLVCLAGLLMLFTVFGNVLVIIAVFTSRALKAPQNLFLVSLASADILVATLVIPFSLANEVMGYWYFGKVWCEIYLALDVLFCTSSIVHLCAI
Sequence of Beta-2 adrenergic receptor (P18762 whole entry): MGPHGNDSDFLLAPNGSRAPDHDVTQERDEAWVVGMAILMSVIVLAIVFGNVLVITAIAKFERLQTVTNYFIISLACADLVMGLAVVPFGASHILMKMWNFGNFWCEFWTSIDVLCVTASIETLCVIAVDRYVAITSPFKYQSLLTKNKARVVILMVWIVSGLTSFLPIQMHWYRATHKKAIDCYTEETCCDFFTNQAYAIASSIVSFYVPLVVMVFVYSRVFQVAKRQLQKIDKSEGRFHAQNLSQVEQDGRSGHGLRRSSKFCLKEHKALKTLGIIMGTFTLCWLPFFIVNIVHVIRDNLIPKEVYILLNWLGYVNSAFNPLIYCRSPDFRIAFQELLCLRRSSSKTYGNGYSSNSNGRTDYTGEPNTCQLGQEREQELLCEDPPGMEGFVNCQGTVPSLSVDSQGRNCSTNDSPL
Sequence of Voltage-dependent T-type calcium channel subunit alpha-1H (O95180 whole entry): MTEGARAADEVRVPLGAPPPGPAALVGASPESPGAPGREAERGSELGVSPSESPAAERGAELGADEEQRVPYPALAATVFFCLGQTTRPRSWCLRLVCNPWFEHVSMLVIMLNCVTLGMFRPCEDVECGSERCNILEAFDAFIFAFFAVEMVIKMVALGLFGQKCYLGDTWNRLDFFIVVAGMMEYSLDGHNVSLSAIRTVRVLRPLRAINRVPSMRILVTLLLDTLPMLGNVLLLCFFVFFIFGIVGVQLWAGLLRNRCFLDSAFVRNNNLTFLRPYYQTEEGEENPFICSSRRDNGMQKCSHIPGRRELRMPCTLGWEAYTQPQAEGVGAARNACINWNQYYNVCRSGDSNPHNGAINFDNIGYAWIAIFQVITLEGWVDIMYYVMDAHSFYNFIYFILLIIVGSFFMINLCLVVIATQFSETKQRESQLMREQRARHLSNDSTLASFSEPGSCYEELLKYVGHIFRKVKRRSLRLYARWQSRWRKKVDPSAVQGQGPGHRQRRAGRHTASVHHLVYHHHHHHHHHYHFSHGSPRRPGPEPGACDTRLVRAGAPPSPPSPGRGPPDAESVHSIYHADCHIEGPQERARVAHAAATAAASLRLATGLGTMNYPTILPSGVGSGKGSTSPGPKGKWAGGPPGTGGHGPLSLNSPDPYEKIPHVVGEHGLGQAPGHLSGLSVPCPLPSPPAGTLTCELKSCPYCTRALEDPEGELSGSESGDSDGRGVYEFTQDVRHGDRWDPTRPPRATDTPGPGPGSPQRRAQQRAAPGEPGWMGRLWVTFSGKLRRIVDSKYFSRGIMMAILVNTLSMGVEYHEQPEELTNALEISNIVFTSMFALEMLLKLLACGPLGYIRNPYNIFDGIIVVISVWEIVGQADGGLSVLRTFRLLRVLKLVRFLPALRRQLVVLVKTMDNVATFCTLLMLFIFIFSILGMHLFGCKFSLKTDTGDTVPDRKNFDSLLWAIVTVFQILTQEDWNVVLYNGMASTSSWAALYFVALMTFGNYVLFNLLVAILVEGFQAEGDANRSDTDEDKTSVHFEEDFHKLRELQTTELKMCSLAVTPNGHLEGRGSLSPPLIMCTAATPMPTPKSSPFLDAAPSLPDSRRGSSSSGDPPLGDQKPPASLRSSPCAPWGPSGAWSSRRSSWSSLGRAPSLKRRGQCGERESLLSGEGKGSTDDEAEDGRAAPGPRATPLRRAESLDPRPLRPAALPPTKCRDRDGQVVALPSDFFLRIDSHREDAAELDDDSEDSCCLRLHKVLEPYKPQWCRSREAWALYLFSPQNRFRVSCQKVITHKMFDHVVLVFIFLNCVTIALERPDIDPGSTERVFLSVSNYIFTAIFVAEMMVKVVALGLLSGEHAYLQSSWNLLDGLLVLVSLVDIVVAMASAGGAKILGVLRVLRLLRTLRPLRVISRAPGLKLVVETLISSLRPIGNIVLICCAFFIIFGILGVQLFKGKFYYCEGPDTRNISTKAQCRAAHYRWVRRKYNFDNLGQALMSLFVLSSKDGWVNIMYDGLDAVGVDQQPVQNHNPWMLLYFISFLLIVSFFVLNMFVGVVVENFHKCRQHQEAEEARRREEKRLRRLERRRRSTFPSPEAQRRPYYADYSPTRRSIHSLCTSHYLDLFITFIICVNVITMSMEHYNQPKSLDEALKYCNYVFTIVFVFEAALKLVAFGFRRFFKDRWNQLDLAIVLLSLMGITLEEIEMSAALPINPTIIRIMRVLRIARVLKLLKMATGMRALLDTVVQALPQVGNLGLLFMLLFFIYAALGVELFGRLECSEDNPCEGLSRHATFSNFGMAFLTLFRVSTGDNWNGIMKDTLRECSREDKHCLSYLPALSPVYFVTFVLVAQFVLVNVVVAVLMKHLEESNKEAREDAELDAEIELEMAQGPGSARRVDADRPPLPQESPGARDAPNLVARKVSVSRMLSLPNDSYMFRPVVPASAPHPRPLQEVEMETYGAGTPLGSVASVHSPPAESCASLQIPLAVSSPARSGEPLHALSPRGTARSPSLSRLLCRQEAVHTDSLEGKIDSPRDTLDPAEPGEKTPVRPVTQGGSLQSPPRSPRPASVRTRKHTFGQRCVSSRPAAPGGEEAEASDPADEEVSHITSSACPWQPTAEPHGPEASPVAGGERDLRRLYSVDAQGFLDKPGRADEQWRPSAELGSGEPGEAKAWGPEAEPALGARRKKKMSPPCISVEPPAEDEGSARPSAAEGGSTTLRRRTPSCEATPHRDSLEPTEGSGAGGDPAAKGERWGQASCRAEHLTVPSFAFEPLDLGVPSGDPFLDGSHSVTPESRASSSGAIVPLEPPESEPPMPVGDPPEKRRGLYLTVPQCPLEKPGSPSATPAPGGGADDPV
Sequence of 5-hydroxytryptamine receptor 3A (P46098 whole entry): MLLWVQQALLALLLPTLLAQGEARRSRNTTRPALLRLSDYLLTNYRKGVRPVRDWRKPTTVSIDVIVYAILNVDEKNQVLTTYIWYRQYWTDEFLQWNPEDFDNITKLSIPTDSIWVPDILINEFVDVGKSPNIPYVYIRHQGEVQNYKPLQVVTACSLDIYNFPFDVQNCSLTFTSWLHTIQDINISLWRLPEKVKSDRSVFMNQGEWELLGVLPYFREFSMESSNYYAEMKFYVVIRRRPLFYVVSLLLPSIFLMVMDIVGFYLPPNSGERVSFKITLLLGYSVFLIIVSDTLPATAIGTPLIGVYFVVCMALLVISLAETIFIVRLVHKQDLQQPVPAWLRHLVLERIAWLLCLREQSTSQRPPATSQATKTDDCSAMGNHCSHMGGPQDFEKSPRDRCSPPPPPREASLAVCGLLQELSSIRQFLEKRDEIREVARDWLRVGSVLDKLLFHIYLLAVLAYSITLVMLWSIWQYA
Sequence of Inositol-tetrakisphosphate 1-kinase (Q13572 whole entry): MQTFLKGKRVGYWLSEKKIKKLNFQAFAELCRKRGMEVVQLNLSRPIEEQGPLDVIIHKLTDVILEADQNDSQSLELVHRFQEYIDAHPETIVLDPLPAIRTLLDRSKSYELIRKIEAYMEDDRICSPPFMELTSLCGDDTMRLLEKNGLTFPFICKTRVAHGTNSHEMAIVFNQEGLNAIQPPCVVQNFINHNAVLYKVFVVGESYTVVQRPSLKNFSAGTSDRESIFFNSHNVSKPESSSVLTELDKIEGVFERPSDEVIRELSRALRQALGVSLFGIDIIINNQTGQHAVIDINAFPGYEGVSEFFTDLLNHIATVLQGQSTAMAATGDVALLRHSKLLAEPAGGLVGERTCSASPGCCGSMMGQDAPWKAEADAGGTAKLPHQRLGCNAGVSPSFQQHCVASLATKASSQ
Sequence of GLRA1 protein (Q14C71 whole entry): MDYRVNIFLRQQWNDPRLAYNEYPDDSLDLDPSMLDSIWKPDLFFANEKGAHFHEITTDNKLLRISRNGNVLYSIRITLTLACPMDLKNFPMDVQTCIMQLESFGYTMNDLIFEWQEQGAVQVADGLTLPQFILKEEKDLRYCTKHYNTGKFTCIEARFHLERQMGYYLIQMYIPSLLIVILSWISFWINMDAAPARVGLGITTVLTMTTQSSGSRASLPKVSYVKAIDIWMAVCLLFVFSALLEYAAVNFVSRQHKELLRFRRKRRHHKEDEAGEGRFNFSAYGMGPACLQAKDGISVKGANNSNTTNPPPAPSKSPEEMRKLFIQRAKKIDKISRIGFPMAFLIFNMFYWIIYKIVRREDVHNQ
Sequence of D(1A) dopamine receptor (P21728 whole entry): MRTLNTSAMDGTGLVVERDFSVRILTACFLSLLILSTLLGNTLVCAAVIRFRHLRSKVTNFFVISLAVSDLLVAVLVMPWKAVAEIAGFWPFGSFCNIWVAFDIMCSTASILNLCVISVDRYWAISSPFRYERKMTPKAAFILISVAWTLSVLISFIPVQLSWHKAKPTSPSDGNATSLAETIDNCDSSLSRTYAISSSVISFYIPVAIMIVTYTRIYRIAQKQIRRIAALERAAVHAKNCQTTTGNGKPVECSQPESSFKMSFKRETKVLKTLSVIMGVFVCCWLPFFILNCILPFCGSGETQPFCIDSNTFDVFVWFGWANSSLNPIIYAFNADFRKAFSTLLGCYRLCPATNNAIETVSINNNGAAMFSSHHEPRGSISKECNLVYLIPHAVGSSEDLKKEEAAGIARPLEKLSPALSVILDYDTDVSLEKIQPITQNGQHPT
Sequence of Type-2 angiotensin II receptor (P50052 whole entry): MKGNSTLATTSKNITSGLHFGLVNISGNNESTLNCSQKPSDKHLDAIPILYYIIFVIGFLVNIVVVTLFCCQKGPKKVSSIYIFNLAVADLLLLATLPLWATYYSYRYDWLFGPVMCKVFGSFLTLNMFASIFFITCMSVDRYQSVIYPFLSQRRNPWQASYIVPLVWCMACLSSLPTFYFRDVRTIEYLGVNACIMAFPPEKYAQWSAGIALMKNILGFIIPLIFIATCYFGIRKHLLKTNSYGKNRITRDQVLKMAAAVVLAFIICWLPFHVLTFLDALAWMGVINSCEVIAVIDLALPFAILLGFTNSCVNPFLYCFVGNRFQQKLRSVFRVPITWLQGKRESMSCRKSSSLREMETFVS
Sequence of VIP peptides (P01282 125-152 limits assumed): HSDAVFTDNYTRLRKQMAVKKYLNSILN

Cc1cc([C@@H]2CCCN2C)on1 [ABT-418]
< 5.00: all assays above

— BindingDB's records for PubMed 7518514 (Abbott Laboratories, 1994)
